# Results reported in patent US20260285850A1, “SUBSTITUTED OXAZOLIDINONES AND IMIDAZOLINONES AS HERBICIDES” (FMC CORPORATION, priority 2023, published 2026).
# What was measured:
# Format in all cases: in vivo
# rice (Oryza sativa) = assay: Test B flooded paddy test, visual plant response rating 0-100; conditions: 250 g ai/ha, Flood, applied to paddy water, evaluated after 13 days
# Summary of the method: (§1)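 Each species was raised to two leaves before flooding to a 3 cm depth and dosing the water with compound. Injury was assessed by eye after 13 days under greenhouse conditions.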
# [1] = tested on: ducksalad (Heteranthera limosa); assay: as above; conditions: 250 g ai/ha, Flood, applied to paddy water, evaluated after 13 days
# Summary of the method: as §1
# [2] = tested on: sedge, umbrella (small-flower umbrella sedge, Cyperus difformis); assay: as above; conditions: 250 g ai/ha, Flood, applied to paddy water, evaluated after 13 days
# Summary of the method: as §1
# [3] = tested on: barnyardgrass (Echinochloa crusgalli); assay: as above; conditions: 250 g ai/ha, Flood, applied to paddy water, evaluated after 13 days
# Summary of the method: as §1
# [4] = tested on: blackgrass (Alopecurus myosuroides); assay: Test A preemergence soil spray, visual injury rating 0-100; conditions: 10 days
# Summary of the method: (§2)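 Plants in a loam and sand soil blend were treated with each test chemical, in a non-phytotoxic solvent system including surfactant, either sprayed on seeded soil before emergence or applied after emergence at the one- to two-leaf stage. Ten days later in the greenhouse, plants were compared with untreated controls and visually rated from 0 (no effect) to 100 (complete control).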
# [5] = tested on: barnyardgrass (Echinochloa crus-galli); assay: as above; conditions: 10 days
# Summary of the method: as §2
# [6] = tested on: ryegrass, Italian (italian ryegrass, Lolium multiflorum); assay: as above; conditions: 10 days
# Summary of the method: as §2
# [7] = tested on: wheat (Triticum aestivum); assay: as above; conditions: 10 days
# Summary of the method: as §2
# kochia (Bassia scoparia) [8] = assay: as above; conditions: 10 days
# Summary of the method: as §2
# corn (Zea mays) [9] = assay: as above; conditions: 10 days
# Summary of the method: as §2
# [10] = tested on: ragweed (common ragweed, Ambrosia artemisiifolia); assay: as above; conditions: 10 days
# Summary of the method: as §2
# [11] = tested on: oat, wild (wild oat, Avena fatua); assay: as above; conditions: 10 days
# Summary of the method: as §2
# [12] = tested on: palmer (palmer amaranth, palmer pigweed, Amaranthus palmeri); assay: as above; conditions: 10 days
# Summary of the method: as §2
# soybean (Glycine max) [13] = assay: as above; conditions: 10 days
# Summary of the method: as §2
# [14] = tested on: green foxtail (Setaria viridis); assay: as above; conditions: 10 days
# Summary of the method: as §2
# [15] = tested on: blackgrass (Alopecurus myosuroides); assay: Test A postemergence application, visual injury rating 0-100
# Summary of the method: as §2
# [16] = tested on: galium (catchweed bedstraw, Galium aparine); assay: as above
# Summary of the method: as §2
# [17] = tested on: barnyardgrass (Echinochloa crus-galli); assay: as above
# Summary of the method: as §2
# [18] = tested on: ryegrass, Italian (italian ryegrass, Lolium multiflorum); assay: as above
# Summary of the method: as §2
# [19] = tested on: wheat (Triticum aestivum); assay: as above
# Summary of the method: as §2
# kochia (Bassia scoparia) [20] = assay: as above
# Summary of the method: as §2
# corn (Zea mays) [21] = assay: as above
# Summary of the method: as §2
# [22] = tested on: horseweed (Erigeron canadensis); assay: as above
# Summary of the method: as §2
# [23] = tested on: ragweed (common ragweed, Ambrosia artemisiifolia); assay: as above
# Summary of the method: as §2
# [24] = tested on: oat, wild (wild oat, Avena fatua); assay: as above
# Summary of the method: as §2
# [25] = tested on: palmer (palmer amaranth, palmer pigweed, Amaranthus palmeri); assay: as above
# Summary of the method: as §2
# soybean (Glycine max) [26] = assay: as above
# Summary of the method: as §2
# [27] = tested on: green foxtail (Setaria viridis); assay: as above
# Summary of the method: as §2
# [28] = 62 g ai/ha, 0 = no effect, 100 = complete control
# [29] = 125 g ai/ha, 0 = no effect, 100 = complete control
# [30] = 62 g ai/ha, postemergence, 10 days, 0 = no effect, 100 = complete control
# [31] = Postemergence, 16 g ai/ha, greenhouse 10 days, 0 no effect, 100 complete control
smiles,measurement,setting,value
CC(C)COC(=O)C1=CCC(NC(=O)C2(C)CN(c3cc(F)cc(F)c3)C(=O)O2)C1 (centres unmarked) [Compound 98],"Plant response rating, Rice (0 to 100 scale, 0 is no effect and 100 is complete control)",rice (Oryza sativa),70
same,"Plant response rating, Ducksalad (0 to 100 scale, 0 is no effect and 100 is complete control)",[1],75
same,"Plant response rating, Sedge, Umbrella (0 to 100 scale, 0 is no effect and 100 is complete control)",[2],98
same,"Plant response rating, Barnyardgrass (0 to 100 scale, 0 is no effect and 100 is complete control)",[3],65
same,Blackgrass plant response rating,"[4]; 16 g ai/ha, 0 to 100 scale",10
same,Blackgrass plant response rating (0-100),[4]; [28],50
same,Blackgrass plant response rating (0 to 100 scale),[4]; [29],0
same,Barnyardgrass plant response rating,"[5]; 16 g ai/ha, 0 to 100 scale",10
same,Barnyardgrass plant response rating (0-100),[5]; [28],90
same,Barnyardgrass plant response rating (0 to 100 scale),[5]; [29],70
same,"Ryegrass, Italian plant response rating","[6]; 16 g ai/ha, 0 to 100 scale",0
same,"Ryegrass, Italian plant response rating (0-100)",[6]; [28],80
same,"Ryegrass, Italian plant response rating (0 to 100 scale)",[6]; [29],80
same,Wheat plant response rating,"[7]; 16 g ai/ha, 0 to 100 scale",30
same,Wheat plant response rating (0-100),[7]; [28],90
same,Wheat plant response rating (0 to 100 scale),[7]; [29],70
same,Kochia plant response rating,"kochia (Bassia scoparia) [8]; 16 g ai/ha, 0 to 100 scale",80
same,Kochia plant response rating (0-100),kochia (Bassia scoparia) [8]; [28],90
same,Kochia plant response rating (0 to 100 scale),kochia (Bassia scoparia) [8]; [29],90
same,Corn plant response rating,"corn (Zea mays) [9]; 16 g ai/ha, 0 to 100 scale",0
same,Corn plant response rating (0-100),corn (Zea mays) [9]; [28],90
same,Corn plant response rating (0 to 100 scale),corn (Zea mays) [9]; [29],20
same,Ragweed plant response rating,"[10]; 16 g ai/ha, 0 to 100 scale",0
same,Ragweed plant response rating (0-100),[10]; [28],0
same,Ragweed plant response rating (0 to 100 scale),[10]; [29],50
same,"Oat, Wild plant response rating","[11]; 16 g ai/ha, 0 to 100 scale",0
same,"Oat, Wild plant response rating (0-100)",[11]; [28],40
same,"Oat, Wild plant response rating (0 to 100 scale)",[11]; [29],20
same,"Pigweed, Palmer plant response rating","[12]; 16 g ai/ha, 0 to 100 scale",10
same,"Pigweed, Palmer plant response rating (0-100)",[12]; [28],50
same,"Amaranth, Palmer plant response rating (0 to 100 scale)",[12]; [29],100
same,Soybean plant response rating,"soybean (Glycine max) [13]; 16 g ai/ha, 0 to 100 scale",0
same,Soybean plant response rating (0-100),soybean (Glycine max) [13]; [28],50
same,Soybean plant response rating (0 to 100 scale),soybean (Glycine max) [13]; [29],10
same,"Foxtail, Green plant response rating","[14]; 16 g ai/ha, 0 to 100 scale",70
same,"Foxtail, Green plant response rating (0-100)",[14]; [28],100
same,Blackgrass plant response rating (0-100),[15]; [30],90
same,Blackgrass plant response rating (0 to 100 scale),[15]; [31],80
same,Galium plant response rating (0-100),[16]; [30],90
same,Galium plant response rating (0 to 100 scale),[16]; [31],80
same,Barnyardgrass plant response rating (0-100),[17]; [30],100
same,Barnyardgrass plant response rating (0 to 100 scale),[17]; [31],100
same,"Ryegrass, Italian plant response rating (0-100)",[18]; [30],90
same,"Ryegrass, Italian plant response rating (0 to 100 scale)",[18]; [31],80
same,Wheat plant response rating (0-100),[19]; [30],80
same,Wheat plant response rating (0 to 100 scale),[19]; [31],70
same,Kochia plant response rating (0-100),kochia (Bassia scoparia) [20]; [30],90
same,Kochia plant response rating (0 to 100 scale),kochia (Bassia scoparia) [20]; [31],80
same,Corn plant response rating (0-100),corn (Zea mays) [21]; [30],100
same,Corn plant response rating (0 to 100 scale),corn (Zea mays) [21]; [31],90
same,Horseweed plant response rating (0-100),[22]; [30],60
same,Horseweed plant response rating (0 to 100 scale),[22]; [31],20
same,Ragweed plant response rating (0-100),[23]; [30],60
same,Ragweed plant response rating (0 to 100 scale),[23]; [31],50
same,"Oat, Wild plant response rating (0-100)",[24]; [30],100
same,"Oat, Wild plant response rating (0 to 100 scale)",[24]; [31],60
same,"Pigweed, Palmer plant response rating (0-100)",[25]; [30],90
same,"Pigweed, Palmer plant response rating (0 to 100 scale)",[25]; [31],70
same,Soybean plant response rating (0-100),soybean (Glycine max) [26]; [30],60
same,Soybean plant response rating (0 to 100 scale),soybean (Glycine max) [26]; [31],50
same,"Foxtail, Green plant response rating (0-100)",[27]; [30],90
same,"Foxtail, Green plant response rating (0 to 100 scale)",[27]; [31],80
